Consider 25 compounds from PubChem BioAssay AID743348 (Broad Institute, 2014).

What is called AC50 is the midpoint of the concentration-response curve, whichever way the signal moves.

The nature of experiment [1]: cell viability loss in HepG2 cells – ATP luminescence, dry powder, set 10, cytotoxicity control, dose response (AID 743348). To be noted: HepG2 viability, CellTiter-Glo ATP luminescence, 72 h; at 26 µM (top of the series). (ATP-based viability assays read luminescence as a measure of living cells.)
Experiment [2] concerns HepG2 viability, CellTiter-Glo ATP luminescence, 72 h. Described as above.

The source made the active and inactive calls.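 The calls were made as follows: active = AC50 for ATP loss at or below twice the top valid dose tested, with the signal falling; inconclusive = flat fit showing moderate loss, or a poor-quality fit; inactive = the rest, including rises in signal.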

Take `CC(=O)c1ccc(N2CCN(C(=O)Nc3ccc4c(c3)OCO4)CC2)cc1`: in experiment [1], the activity change, negative = cytotoxicity is -12% (inactive).
Turning to `CC(=O)c1ccc(N2CCN(C(=O)c3cc4c(cn3)OCO4)CC2)cc1`, in experiment [1], the activity change, negative = cytotoxicity is -2.87% (inactive).
On to `COc1cc2c(cc1C(=O)N1CCN(c3ccc(C(C)=O)cc3)CC1)OCO2`, for which the activity change, negative = cytotoxicity in experiment [1] was 7.72% (inactive).
In the case of `O=C(c1ccc2c(c1)OCO2)N1CCN(c2ccc(OC(F)(F)F)cc2)CC1`, the activity change, negative = cytotoxicity in experiment [1] is -0.808% (inactive).
As for `CC(=O)c1ccc(N2CCN(C(=O)c3ccc4ocnc4c3)CC2)cc1`, the activity change, negative = cytotoxicity in experiment [1] was 10.9% (inactive).
Turning to `CC(=O)c1ccc(N2CCN(C(=O)c3cc(Cl)c4c(c3)OCO4)CC2)cc1`, the activity change, negative = cytotoxicity in experiment [1] was 6.73% (inactive).
Same read-out and setting: to `CC(=O)c1ccc(N2CCN(C(=O)c3cc4c(cc3C)OCO4)CC2)cc1` belongs 31.1% (inactive); to `CC(=O)c1ccc(N2CCCN(C(=O)c3ccc4c(c3)OCO4)CC2)cc1`, 11.7% (inactive); to `CC(=O)c1ccc(N2CCN(C(=O)c3cccc4c3OCO4)CC2)cc1`, 14.1% (inactive).
For `CC(=O)c1ccc(N2CCN(C(=O)c3cc4c(cc3Cl)OCO4)CC2)cc1`, the activity change, negative = cytotoxicity in experiment [1] is 28.5% (inactive).
Same read-out and setting: for `COc1cc(C(=O)N2CCN(c3ccc(C(C)=O)cc3)CC2)cc2c1OCO2` the value was 12% (inactive); for `O=C(c1ccc2c(c1)OCO2)N1CCN(c2ccc(C(F)(F)F)cc2)CC1`, 7.07% (inactive).
With `CC(=O)c1ccc(N2CCN(S(=O)(=O)c3ccc4c(c3)OCO4)CC2)cc1`, the AC50 in experiment [2] is > 52 µM (inactive).
In the case of `O=C(c1ccc2c(c1)OCO2)N1CCN(c2ccc(S(=O)(=O)C(F)(F)F)cc2)CC1`, the activity change, negative = cytotoxicity in experiment [1] was 24.8% (inactive).
Same read-out and setting: to `CC(=O)c1ccc(N2CCN(C(=O)c3ccc(Cl)c(Cl)c3)CC2)cc1` belongs 55.4% (inactive); to `CC(=O)c1ccc(N2CCN(C(=O)c3ccc4c(c3)OC(C)(C)O4)CC2)cc1`, -6.05% (inactive); to `CC(=O)c1ccc(N2CCN(C(=O)c3ccc4c(c3)OC(F)(F)O4)CC2)cc1`, 14.2% (inactive).
The same measure, in the same setting: for `CC(=O)c1ccc(N2CC3CC2CN3C(=O)c2ccc3c(c2)OCO3)cc1` (stereo not given) the value was 36.6% (inactive).
Same read-out and setting: for `COc1ccc(C(=O)N2CCN(c3ccc(C(C)=O)cc3)CC2)cc1OC` the value was 9.73% (inactive); for `O=C(c1ccc2c(c1)OCO2)N1CCN(c2ccc(S(=O)(=O)C(F)F)cc2)CC1`, 27.7% (inactive).
Consider `CC(=O)c1ccc(N2CCN(C(=O)c3ccc4c(c3)OCO4)CC2)cc1`, for which, in experiment [1], the activity change, negative = cytotoxicity is -3.33% (inactive).
As to `CC(=O)c1ccc(N2CCN(C(=O)c3ccc4snnc4c3)CC2)cc1`, in experiment [1], the activity change, negative = cytotoxicity is 19.1% (inactive).
Regarding `CS(=O)(=O)c1ccc(N2CCN(C(=O)c3ccc4c(c3)OCO4)CC2)cc1`, in experiment [1], the activity change, negative = cytotoxicity is -7.24% (inactive).
Same read-out and setting: to `CC(=O)c1ccc(N2CCN(C(=O)c3ccc4c(c3C)OCO4)CC2)cc1` belongs 0.898% (inactive); to `N#Cc1ccc(N2CCN(C(=O)c3ccc4c(c3)OCO4)CC2)cc1`, -5.11% (inactive).
